# Assay results reported in PubChem BioAssay AID2393 (NMMLSC, 2010).
# Active and inactive are the calls of the source.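 How the source made its calls: active means none, because compounds meeting the potency rule were filed inconclusive for hitting several proteins; inconclusive means EC50 under 20 µM with over 15% binding change; inactive means the rest.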
# Tests used:
# Assay in all cases: small GTPase panel, fluorescent GTP binding blockade – biochemical, Mg buffer, constant GTP, RhoA, Rac1, Cdc42, mechanism study for Ras-family GTPase inhibitor project, profiling panel (AID 2393);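 on EC50: EC50 marks half change in GTP binding and may reflect gain or loss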
# [1] = target: Ras-related C3 botulinum toxin substrate 1 (Homo sapiens) (UniProt P63000); settings: GST-GTPase beads, BODIPY-GTP binding, flow cytometry; for GTP binding remaining (% of DMSO): at 100 µM (top of the series)
# [2] = target: Cell division control protein 42 homolog (Homo sapiens) (UniProt P60953); settings: GST-GTPase beads, BODIPY-GTP binding, flow cytometry; for GTP binding remaining (% of DMSO): at 100 µM (top of the series)
# [3] = target: Transforming protein RhoA (Homo sapiens) (UniProt P61586); settings: GST-GTPase beads, BODIPY-GTP binding, flow cytometry, at 100 µM (top of the series)
SMILES,GTP binding remaining (% of DMSO) ([1]; Rac1ACT),GTP binding remaining (% of DMSO) ([1]; Rac1WT),GTP binding remaining (% of DMSO) ([2]; Cdc42ACT),GTP binding remaining (% of DMSO) ([2]; Cdc42WT),GTP binding remaining (% of DMSO) ([3]; RhoACT),GTP binding remaining (% of DMSO) ([3]; RhoWT),EC50 ([1]; Rac1WT),EC50 ([2]; Cdc42ACT),EC50 ([2]; Cdc42WT)
COc1ccc(-c2ccc(CCC(=O)N3CCN(c4cc(C)ccc4C)CC3)[nH]2)cc1,inactive,inactive,inactive,inactive,inactive,inactive,,,
Cc1ccc(C2CC(c3ccccc3)=NN2c2ccc(S(N)(=O)=O)cc2)cc1 (configuration not stated),inactive,,,,inactive,inactive,inactive,5.07 µM,4.36 µM
